This note sets out measurements from US20260092086A1, “ANTIMICROBIAL LASSO PEPTIDES” (priority 2022, published 2026).

Series [1] concerns Enterobacter cloacae UCI102. Nature of the series: MIC in M63 media (liquid). In kind it is cell-based. The conditions noted are these: clinical isolate Enterobacter cloacae UCI102. The method, then: For liquid inhibition assays, 5 mL LB broth was inoculated with 40-50 μL of an overnight culture of E. cloacae or E. amnigenus. […] The plate was shaken at 30° C. at 250 rpm for E. cloacae, and 37° C. at 250 rpm for E. amnigenus. The OD600 was measured at 8-hour and 16-hour increments. The MIC is defined as the lowest concentration of cloacaenodin for which growth (as assessed by the OD600) was inhibited.

Series [2] has as its system clinical isolates of Enterobacter. Nature of the series: Spot-on-lawn assay, panel of clinical isolates (Table 7). The class given is cell-based. The procedure: The type strain of Enterobacter cloacae (ATCC 13047) tested as discussed above was isolated from human cerebrospinal fluid in 1890^66 before the era of antibiotics. The activity of cloacaenodin was also tested against more recent clinical isolates. A panel of two (2) clinical isolates of Enterobacter using the spot-on-lawn assay was tested (Table 7).
Cloacaenodin was evaluated against several common laboratory strains as well as commercially acquired strains using a spot-on-lawn assay.^45 Strains were streaked out onto LB agar plates and incubated overnight at their recommended temperatures. A single colony was then used to inoculate an overnight culture in 5 mL of LB broth. After shaking at 250 rpm at the recommended temperature for each strain, 50 μL of the overnight culture was used to inoculate 5 mL of LB broth (volume ratio 1:100). These cultures were grown for a few hours until they reached the exponential phase (OD600˜0.4-0.6) before being added to 10 mL of soft M63 agar at a final cell density of 10^7 CFUs/mL, or 10^8 CFUs total in 10 mL. […] The plates were incubated overnight at the strains' recommended temperatures and analyzed the next morning for activity. […]

In the next series the target is T1, Elastase (Sus scrofa, UniProt P00772).
T1 construct: purchased Promega
T1 sequence (P00772 27-266): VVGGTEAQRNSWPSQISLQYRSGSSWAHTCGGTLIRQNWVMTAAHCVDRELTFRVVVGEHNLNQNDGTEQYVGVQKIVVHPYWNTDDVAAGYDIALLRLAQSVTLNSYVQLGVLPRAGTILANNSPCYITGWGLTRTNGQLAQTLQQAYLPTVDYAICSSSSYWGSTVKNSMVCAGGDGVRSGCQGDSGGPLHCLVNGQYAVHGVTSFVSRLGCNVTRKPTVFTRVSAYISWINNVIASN
Nature of the series: Protease digestion, elastase. In kind it is in vitro ADME. The conditions noted are these: 50 μM peptide, 25° C., about 1 hour, LC-MS. The procedure:
Elastase (Promega) was resuspended in 50 mM Tris pH 9.0. The enzyme was added to 50 μM peptide samples at a final enzyme concentration of about 0.04 mg/mL in a buffer of 50 mM Tris, pH 9. The reactions were then allowed to incubate at 25° C. for about 1 hour before quenching with 1% formic acid. An aliquot was then injected into LC-MS for analysis.

The test system of a further series is Enterobacter strains. Nature of the series: Spot-on-lawn assay, CDC & FDA Antibiotic Resistance Isolate Bank panels. The class given is cell-based. The conditions noted are these: three of the four Enterobacter strains of the CRE/BIT panels, M63 agar. The source says: (§1) FIG. 42. Spot-on-lawn assays of tested clinical isolates treated with cloacaenodin in M63 agar. From the initial concentration shown to the left of the curved arrow and in the direction of the curved arrow, two-fold serial dilutions of cloacaenodin were spotted. The straight arrows point to the last visible spot on the plate which corresponds to the recorded minimal inhibitory concentration (MIC). Spot 8 is pure water in all plates. AR Bank #0132, AR Bank #0136, AR Bank #0144, and AR Bank #0154 are from the CRE panel. AR Bank #0001 and AR Bank #0002 are from the BIT panel.
(§2) Two panels from the CDC & FDA Antibiotic Resistance Isolate Bank were used: the Enterobacterales Carbapenemase Diversity (CRE) panel and the Enterobacterales Carbapenem Breakpoint (BIT) panel.^81 These panels represent strains with resistance to carbapenems, which are last resort antibiotics: there is an urgent need of new treatments of infections with these strains.
(§3) We tested 6 strains: 4 Enterobacter strains, 1 Kluyvera strain, and 1 Escherichia coli strain.

In the next series the test system is Kluyvera strain. The series is described as above. In kind it is cell-based. The conditions noted are these: carbapenem-resistant CRE/BIT panel strain, M63 agar.
Description: as §1, §2, §3

Another series concerns the target T2, α-chymotrypsin (Bos taurus, UniProt P00766, DEL14-15/DEL147-148).
T2 construct: purchased Sigma-Aldrich; host or cells: bovine pancreas
Nature of the series: Protease digestion, chymotrypsin. In kind it is in vitro ADME, bovine. The conditions noted are these: 50 μM peptide, 25° C., about 1 hour, LC-MS. The method, then: α-chymotrypsin from bovine pancreas (Sigma-Aldrich) was first resuspended in 1 mM HCl, 2 mM CaCl2). The enzyme was added to 50 μM peptide samples at a final enzyme concentration of about 0.04 mg/mL in a buffer of 100 mM tris(hydroxymethyl)aminomethane (Tris), 10 mM CaCl2, pH 8. The reactions were then allowed to incubate at 25° C. for about 1 hour before quenching with 1% formic acid, and an aliquot was injected onto LC-MS for analysis.

The next series relates to E. coli MG1655. Nature of the series: Spot-on-lawn assay in M63 agar. The class given is cell-based, Escherichia coli. The following applies: purified cloacaenodin in water. The procedure: (§4) Cloacaenodin was evaluated against several common laboratory strains as well as commercially acquired strains using a spot-on-lawn assay.^45 Strains were streaked out onto LB agar plates and incubated overnight at their recommended temperatures. A single colony was then used to inoculate an overnight culture in 5 mL of LB broth. After shaking at 250 rpm at the recommended temperature for each strain, 50 μL of the overnight culture was used to inoculate 5 mL of LB broth (volume ratio 1:100). These cultures were grown for a few hours until they reached the exponential phase (OD600˜0.4-0.6) before being added to 10 mL of soft M63 agar at a final cell density of 10^7 CFUs/mL, or 10^8 CFUs total in 10 mL. The M63 soft agar was composed of 2 g/L of (NH4)2SO4 (EMD MilliporeSigma), 13.6 g/L of KH2PO4 (Fisher), 40 mg/L of each of the 20 common amino acids, 0.2% glucose (Sigma), 0.00005% w/v thiamine hydrochloride (Sigma), and 0.65% w/v bacteriological-grade agar (Apex Bioresearch). […] Upon solidification, 10 μL of purified cloacaenodin in water at two-fold dilutions were then spotted onto the agar and allowed to dry. The plates were incubated overnight at the strains' recommended temperatures and analyzed the next morning for activity. The MIC is defined as the last dilution where a spot was visible.

The conditions of series [3]: 18 μM in pure water, 37° C., 72 hours (3 days). The method, then:
A 200 μL sample of purified ˜18 μM cloacaenodin in water was incubated at 37° C. for 72 hours. 30 μL of the sample was injected on LC-MS at 24-hour increments.

Series [4] relates to Enterobacter ludwigii MGH216. The class given is cell-based.
For series [5], the system named is Enterobacter asburiae UCI193. In kind it is cell-based. The procedure: as §4
(§5) Twelve (12) clinical isolates were tested at the Broad Institute of MIT and Harvard, with a subset of strains from BioProject PRJNA292902, BioProject PRJNA271899, BioProject PRJNA201976, and BioProject 219285. The strains were tested following the same spot-on-lawn assay protocol described above, but with BD Bacto Agar used instead. All cloacaenodin-treated isolates were incubated at 37° C. overnight, and the assay was repeated at least three times (on biological replicates) for each of the twelve (12) strains. We defined a strain to be susceptible if it was reliably susceptible in at least three biological replicates.

Series [6] deals with Enterobacter kobei MGH178. In kind it is cell-based. The procedure:
as §4, §5

For series [7], the system named is Enterobacter asburiae MGH243. In kind it is cell-based. The method, then:
as §4, §5

In series [8] the test system is Enterobacter cloacae UCI102. In kind it is cell-based. The method, then:
as §4, §5

Series [9] has as its system Enterobacter hormaechei UCI35. In kind it is cell-based. The method, then:
as §4, §5

Setting [10] is: listed as Threaded cloacaenodin.
[11] abbreviates: listed as threaded cloacaenodin.

Structures are written as SMILES. Values after ≈ are worked out from the molar mass of the structure shown. Values joined by “and” are separate entries in the source; they are usually repeats but may differ in a detail not shown here. Equal entries are not always repeated. Where two headings read alike, the source gives them in different places. Where a SMILES comes first, the peptide text is derived from it.

On to `CC[C@H](C)[C@@H]1NC(=O)[C@H](CCCNC(=N)N)NC(=O)[C@H](CC(=O)O)NC(=O)[C@H](C(C)C)NC(=O)[C@H](CO)NC(=O)[C@H](Cc2c[nH]cn2)NC(=O)CNC(=O)CC[C@@H](C(=O)N[C@@H](Cc2ccc(O)cc2)C(=O)N[C@@H](Cc2ccccc2)C(=O)NCC(=O)N2CCC[C@H]2C(=O)N2CCC[C@H]2C(=O)NCC(=O)N[C@@H](CC(C)C)C(=O)N2CCC[C@H]2C(=O)NCC(=O)N2CCC[C@H]2C(=O)N[C@H](C(=O)N[C@@H](CC(C)C)C(=O)N[C@@H](Cc2ccccc2)C(=O)N[C@@H](Cc2ccc(O)cc2)C(=O)N[C@@H](CO)C(=O)O)C(C)C)NC(=O)[C@@H]2CCCN2C1=O` [cloacaenodin] (HELM PEPTIDE1{G.H.S.V.D.R.I.P.E.Y.F.G.P.P.G.L.P.G.P.V.L.F.Y.S}$PEPTIDE1,PEPTIDE1,1:R1-9:R3$$$V2.0; C-terminus assumed), for which the “MIC in M63 media” value in series [1] is “(agar)/230 nM”; in [4] it was 0.23 µM (≈ 0.594 µg/mL); in series [5], 2 µM (≈ 5.17 µg/mL); in [6], 1 µM (≈ 2.58 µg/mL); in [7], 2 µM (≈ 5.17 µg/mL); in series [8], 0.5 µM (≈ 1.29 µg/mL). In addition, the “MIC in M63 media” value in series [9] amounted to 1 µM (≈ 2.58 µg/mL). For the same compound, in series [2] (six of the clinical isolates, three classified as carbapenem resistant), the “minimal inhibitory concentration (MIC)” value is reported as “low micromolar”. Moreover, the antimicrobial activity entry in [2] (the other clinical isolates of Table 7) is “either weak or no activity”; in the series with Enterobacter strains, “single digit micromolar”; in the series with Kluyvera strain, “single digit micromolar”. The proteolysis by elastase result at Elastase (setting [10]) was “resistant to elastase digestion”; at Elastase (setting [11]), “remained resistant to proteolysis”. For the same compound, the figures for the proteolysis by chymotrypsin entry at α-chymotrypsin (setting [10]) and at α-chymotrypsin (setting [11]) were “resistant to chymotrypsin digestion” and “remained resistant to proteolysis”, respectively. Further, the “antimicrobial activity (zones of inhibition)” value in the series with E. coli MG1655 is recorded as “no observed activity”. For the same compound, in [3], the “fraction remaining threaded (relative peak area on LC-MS)” value was ~83% and > 80%. Further, the “strain susceptible to cloacaenodin” value in series [5] (clinical strain UCI193, reliably susceptible in at least three biological replicates) was “* UCI193”.
